Results published in patent EP0003794B1, “Testosterone esters, process for their preparation and pharmaceutical compositions containing them” (priority 1978, dated 1979).

Tests used:
[1] = Testosterone plasma concentration (radioimmunoassay) and bioavailability after oral application in peanut oil, female dogs; i.m. testosterone as the reference; format: in vivo, Hunden
Procedure: Es wurde der zeitliche Verlauf der Testosteronkonzentration im Plasma von weiblichen Hunden von ca. 10 kg Gewicht nach oraler Applikation von 50 mg Testosteron-0-hexadecanoylglykolat (= 25 mg Testosteron) und von 40 mg Testosteronundecylat (= 25 mg Testosteron) im Vergleich zur […] Applikation von 25 mg Testosteron gemessen. Die Testosteronbestimmung im Plasma erfolgte mittels Radioimmunoassay. Zur Applikation wurden die geprüften Substanzen in Erdnußöl gelöst.
Die Bioverfügbarkeit wurde berechnet als Quotient der Flächen unter der Testosteronplasmaspiegelkurve (0-8 Stunden) nach oraler Applikation der geprüften Substanzen und der Fläche unter der Testosteronplasinaspiegelkurve nach intramuskulärer Applikation von Testosteron.

[2] = format: in vivo, Paviane; conditions: 50 mg i.m. in 1 ml Rizinusöl/Benzylbenzoat (6:4), female baboons
Procedure: Die gleichmäßige, anhaltende Bereitstellung von Testosteron aus den erfindungsgemäßen Estern kann durch Bestimmung der Testosteronkonzentration im Plasma mittels Radioimmunoassay nachgewiesen werden.
Zu diesem Zweck erhielten zwei weibliche Paviane je 50 mg Testosteron-O-hexadecanoylglykolat in 1 ml Rizinusöl/Benzylbenzoat (6:4) intramuskular. Die Testosteron-Plasmaspiegel lagen zwischen dem 2. und 40. Tag im Bereich zwischen 15 und 25 ng/ml Plasma.

[3] = Recent Progress in Hormone Research, Volume XIII, 389-396, Fig. 1 and Fig. 4; cited from earlier work

SMILES	Wirkung (Verlauf) im Vergleich zu Testosteronönanthat [3]	other results
C[C@]12CC[C@H]3[C@@H](CCC4=CC(=O)CC[C@@]43C)[C@@H]1CC[C@@H]2O [Testosteron (T), Testosteron]	–	AUC at 8 h ([1]; dog, plasma, oral, in Erdnußöl, dose ≙ 25 mg Testosteron, female dogs ca. 10 kg, testosterone by radioimmunoassay, read-out: Fläche unter Plasma-spiegel (0 – 8 h)): 10.6 ng·h/mL; Bioverfügbarkeit bezogen auf i.m. Applikation ([1]; in vivo): 1,29%
CCCCCCCCCCCCCCCC(=O)OCC(=O)O[C@H]1CC[C@H]2[C@@H]3CCC4=CC(=O)CC[C@]4(C)[C@H]3CC[C@]12C [Testosteron-O-hexadecanoylglykolat]	–	Freisetzung des Testosterons aus dem Depot [2]: fast vollständig freigesetzt
CCCCCCCCCC(=O)CC(=O)O[C@H]1CC[C@H]2[C@@H]3CCC4=CC(=O)CC[C@]4(C)[C@H]3CC[C@]12C [Testosteroncaprinoylacetat]	über 6 Wochen etwas gleichmäßigere aber insgesamt geringere Wirkung	–
CCCCCCCCCCC(=O)O[C@H]1CC[C@H]2[C@@H]3CCC4=CC(=O)CC[C@]4(C)[C@H]3CC[C@]12C [Testosteronundecylat]	etwas gleichmäßigere Wirkung als Testosteronönanthat	–
CCCCCCC(=O)O[C@H]1CC[C@H]2[C@@H]3CCC4=CC(=O)CC[C@]4(C)[C@H]3CC[C@]12C [Testosteronönanthat]	besonders hohe initiale Wirkung zeigt, die relativ rasch abfällt	–
